Source: patent US20250110113A1, “HUMAN ORGAN-ON-A-CHIP HAVING REVERSE MICRO-WEIR STRUCTURE AND USES THEREOF” (HUMANASE, priority 2022, published 2025)

Key:
Type in all cases: cell-based, human
[1] = test system: cervical cancer cells (HeLa); assay: Organ-on-a-chip containing cervical cancer cells, doxorubicin treatment, optical microscope; settings: 100 μM doxorubicin in media supply chamber; 24 hours after treatment; HeLa cultured 2 days on chip; compared with control group
Protocol: (§1) As for one set of a media supply chamber and a media recovery chamber included in the organ-on-a-chip of the present invention fabricated in Example 1, 200 μl of media (Dulbecco Modified Eagle Medium (DMEM, Gibco) supplemented with 10% FBS) was loaded in each of the chambers. The flow of media was connected between each chamber by using a pipette, and then the media was filled inside the media channel located at both sides to finally form the flow of media. Particularly, it was confirmed that a boundary of the media was formed between the media channel and the cell chamber due to surface tension, with the inverted micro-weir structure serving as a boundary.
Then, 3×10^4 cervical cancer cells (HeLa) were injected into the cell inlet by using a pipette, and the injected cervical cancer cells (HeLa) were injected into the cell chamber by pipetting. […] Subsequently, the cells were cultured in a humidified incubator for 2 days under the conditions of 37° C. and 5% CO2.
(§2) After 100 μM doxorubicin was added to the media supply chamber of the organ-on-a-chip containing cervical cancer cells (HeLa) fabricated in Example 2-2-1, a change in cervical cancer cells in the organ-on-a-chip due to doxorubicin was observed using an optical microscope, and the degree of damage to the cervical cancer cells was compared and analyzed with a control group (FIG. 7). […]

[2] = test system: liver cancer cells (HepG2); assay: Organ-on-a-chip containing liver cancer cells, doxorubicin treatment, optical microscope; settings: 100 μM doxorubicin in media supply chamber; 24 hours after treatment; HepG2 cultured 2 days on chip; compared with control group
Protocol: As for one set of a media supply chamber and a media recovery chamber included in the organ-on-a-chip of the present invention fabricated in Example 1, 200 μl of media (Minimum Essential Media Eagle (MEM, high-glucose, Gibco) supplemented with 25 mM HEPES (4-(2-hydroxyethyl)-1-piperazineethanesulfonic acid, Gibco), 25 mM NaHCO3 (Sodium bicarbonate, Sigma-Aldrich), 10% (v/v) FBS, and P/S (100 Uml-1penicillin/100 Uml-1streptomycin, Sigma-Aldrich Co., MO)) was loaded in each of the chambers. The flow of media was connected between each chamber by using a pipette, and then the media was filled inside the media channel located at both sides to finally form the flow of media. Particularly, it was confirmed that a boundary of the media was formed between the media channel and the cell chamber due to surface tension, with the inverted micro-weir structure serving as a boundary. […]
as §2, with “liver” for “cervical”, “(HepG2)” for “(HeLa)”, “2-3-1,” for “2-2-1,”, “of liver” for “in cervical”, “8).” for “7).”

[3] = test system: breast cancer cells (MCF-7); assay: Organ-on-a-chip containing breast cancer cells, doxorubicin treatment, optical microscope; settings: 100 μM doxorubicin in media supply chamber; 24 hours after treatment; MCF-7 cultured 2 days on chip; compared with control group
Protocol: as §1, with “(RPMI 1640 (Gibco)” for “(Dulbecco Modified Eagle Medium (DMEM, Gibco)”, “fetal bovine serum (FBS, Gibco))” for “FBS)”
Then, 3×10^4 breast cancer cells (Michigan Cancer Foundation-7, MCF-7) were injected into the cell inlet by using a pipette, and the injected breast cancer cells were injected into the cell chamber by pipetting. […] Subsequently, the cells were cultured in a humidified incubator for 2 days under the conditions of 37° C. and 5% CO2.
After 100 μM doxorubicin (TOCRIS) was added to the media supply chamber of the organ-on-a-chip containing breast cancer cells fabricated in Example 2-1-1, a change in breast cancer cells in the organ-on-a-chip due to doxorubicin was observed using an optical microscope, and the degree of damage to the breast cancer cells was compared and analyzed with a control group (FIG. 6). […]

## COc1cccc2c1C(=O)c1c(O)c3c(c(O)c1C2=O)C[C@@](O)(C(=O)CO)C[C@@H]3O[C@H]1C[C@H](N)[C@H](O)[C@H](C)O1 [doxorubicin]
[1]
  degree of damage to the cervical cancer cells (cell death): most of the cervical cancer cells cultured in the organ-on-a-chip were dead
[2]
  degree of damage to the liver cancer cells (cell death): most of the liver cancer cells cultured in the organ-on-a-chip were dead
[3]
  degree of damage to the breast cancer cells (cell death): most of the breast cancer cells cultured in the organ-on-a-chip were dead
